The text below walks through data of patent US5591734A, “17-(3-furyl)-5β, 14β-androstane derivatives active on the cardiovascular system, processes for their preparation and pharmaceutical compositions containing same” (Sigma-Tau Industrie Farmaceutiche Riunite S.p.A., priority 1992, dated 1997).

Structures can show the parent of a compound that is named as a salt. Where two headings read alike, the source gives them in different places.

The target of assay [1] is T1, Na^+,K^+ -ATPase receptor (Homo sapiens, UniProt P05023).
T1 construct: receptor purified according to Jorghensen (Jorghensen P., BBA, 1974, 356, 36); from tissue; kidney outer medulla inferred from the cited Jorgensen method
As to the kind of experiment: displacement of the specific ^3 H-ouabain binding from the purified Na^+,K^+ -ATPase receptor. The conditions noted are these: ^3 H-ouabain displacement, read-out: Binding ^3 H-Ouab. Displacement log IC50 (converted). The text has this: (§1) To test the affinity for the receptor site of the Na^+,K^+ -ATPase and the inhibitory activity on the enzyme, the following tests were used: a) displacement of the specific ^3 H-ouabain binding from the Na^+,K^^+ -ATPase receptor purified according to Jorghensen (Jorghensen P., BBA, 1974, 356, 36) and Erdmann (Erdmann E. et al., Arzneim. Forsh., 1984, 34, 1314); b) inhibition of the activity of the purified Na^+,K^+ -ATPase measured as % of hydrolysis of ^32 P-ATP in presence and in absence of the tested compound (Mall F. et al., Biochem. Pharmacol., 1984, 33, 47).

Assay [2] concerns spontaneous hypertensive rats of the Milan (MHS). The assay can be described thus: antihypertensive activity in spontaneous hypertensive rats (MHS), indirect tail-cuff method. It counts as in vivo, rat. The settings on record: 10 mg/Kg/os daily for ten days in Methocel 0.5% w/v, 7 rats; for SBP (SYSTOLIC BLOOD PRESSURE FALL IN SPONTANEOUS HYPERTENSIVE RATS (MHS)): controls 172 +/- 2.0; for HR (heart rate): controls 328 +/- 8.6.

The target in assay [3] is T2, purified Na^+,K^+ -ATPase (Homo sapiens, UniProt P05023).
T2 construct: receptor purified according to Jorghensen (Jorghensen P., BBA, 1974, 356, 36); from tissue; kidney outer medulla inferred from the cited Jorgensen method
As to the kind of experiment: biochemical.
Excerpt: as §1

Where [4] appears, read: purified Na^+,K^+ -ATPase, ^32 P-ATP hydrolysis, read-out: Inhibitory Activity log IC50 (converted).

As to `C[C@]12CC[C@H](O)C[C@H]1CC[C@@H]1[C@@H]2CC[C@]2(C)[C@@](O)(c3ccoc3)CC[C@]12O` [Comp. I-a, 17β(3-Furyl)-5β-androstane-3β,14β,17α-triol], the IC50 is 1.58 µM in assay [1] and 31.6 µM in assay [3] (setting [4]). Further, the “SBP (SYSTOLIC BLOOD PRESSURE FALL IN SPONTANEOUS HYPERTENSIVE RATS (MHS))” value (from here on “SBP”) in assay [2] was 149 +/- 4.3 mm Hg. Moreover, the “HR (heart rate)” value in assay [2] is 318 +/- 10.2 beats/min.
In the case of `C[C@]12CC[C@H](OCCO)C[C@H]1CC[C@@H]1[C@@H]2CC[C@]2(C)[C@@](O)(c3ccoc3)CC[C@]12O` [Comp. I-b, 3β-(2-Hydroxyethoxy)-17β-(3-furyl)-5β-androstane-14β,17α-diol], the 50% inhibitory concentration (IC50) in assay [1] was 3.16 µM; in assay [3] (setting [4]), 25.1 µM.
The like results for `C[C@]12CC[C@H](OCCCN)C[C@H]1CC[C@@H]1[C@@H]2CC[C@]2(C)[C@@](O)(c3ccoc3)CC[C@]12O` [Comp. I-c, 3β-(3-Aminopropoxy), 17β-(3-furyl)-5β-androstane-14β,17α-diol] were, in that order, 0.501 µM and 7.94 µM.
As to `C[C@]12CC[C@H](OCCN3CCCC3)C[C@H]1CC[C@@H]1[C@@H]2CC[C@]2(C)[C@@](O)(c3ccoc3)CC[C@]12O` [Comp. I-d, 3β-(2-(1-Pyrrolidinyl)ethoxy)-17β-(3-furyl)-5β-androstane-14β,17α-diol], the IC50 in assay [1] was 0.631 µM. Also, in assay [2], the “SBP” value is reported as 158 +/- 2.5 mm Hg and the “HR (heart rate)” value is 325 +/- 9.3 beats/min. For the same compound, in assay [3] (setting [4]), the IC50 is 15.8 µM.
Consider `CO[C@]1(c2ccoc2)CC[C@]2(O)[C@@H]3CC[C@@H]4C[C@@H](OCCN5CCCC5)CC[C@]4(C)[C@H]3CC[C@]12C` [Comp. I-f, 3β-(2-(β1-Pyrrolidinyl)ethoxy)-17β-(3-furyl)-17α-methoxy-5β-androstan-14β-ol], for which the IC50 in assay [1] was 5.01 µM; in assay [3] (setting [4]), 25.1 µM.
The like results for `C[C@]12CCC(=O)C[C@H]1CC[C@@H]1[C@@H]2CC[C@]2(C)[C@@](O)(c3ccoc3)CC[C@]12O` [Comp. I-j] were, in that order, 3.98 µM and 79.4 µM.
The corresponding values for `C[C@]12CCC(=NN=C(N)N)C[C@H]1CC[C@@H]1[C@@H]2CC[C@]2(C)[C@@](O)(c3ccoc3)CC[C@]12O` [Comp. I-k, 3-Guanidinoimino-17β-(3-furyl)-5β-androstane-14β,17α-diol] are 1 µM and 15.8 µM.
The like results for `C[C@]12CC[C@H](O)C[C@H]1CC[C@@H]1[C@@H]2CC[C@]2(C)[C@@](O)(c3ccnnc3)CC[C@]12O` [Comp. I-n, 17β-(4-Pyridazinyl)-5β-androstane-3β,14β,17α-triol] were, in that order, 2.51 µM and 25.1 µM.
As for `C[C@]12CC[C@H](SCCCN)C[C@H]1CC[C@@H]1[C@@H]2CC[C@@]2(C)[C@@]13O[C@@H]3C[C@]2(O)c1ccoc1` [Comp. I-r, 3β-(3-Aminopropylthio)-14β,15β-epoxy-17β-(3-furyl)-5β-androstan-17α-ol oxalate], the IC50 in assay [1] was 3.98 µM. Besides, in assay [2], the “SBP” value is on record as 154 +/- 2.4 mm Hg and the “HR (heart rate)” value was 320 +/- 9.6 beats/min. The IC50 in assay [3] (setting [4]) was 31.6 µM.
Take `C[C@]12CC[C@H](OCCOCCN3CCCC3)C[C@H]1CC[C@@H]1[C@@H]2CC[C@]2(C)[C@@](O)(c3ccoc3)CC[C@]12O` [Comp. I-w, 3β-(2-(2-(1-Pyrrolidinyl)ethoxy)ethoxy)-17β-(3-furyl)-5β-androstane-14β,17α-diol]: the half-inhibitory concentration (IC50) in assay [1] is 0.631 µM; in assay [3] (setting [4]), 3.98 µM.
Regarding `CNCCO[C@H]1CC[C@@]2(C)[C@H](CC[C@@H]3[C@@H]2CC[C@]2(C)[C@@](O)(c4ccoc4)CC[C@]32O)C1` [Comp. I-x, 3β-(2-Methylaminoethoxy)-17β-(3-furyl)-5β-androstane 14β,17α-diol], the half-inhibitory concentration (IC50) in assay [1] is 0.501 µM; in assay [3] (setting [4]), 10 µM.
`C[C@]12CC[C@H](OCCCNC(=N)N)C[C@H]1CC[C@@H]1[C@@H]2CC[C@]2(C)[C@@](O)(c3ccoc3)CC[C@]12O` [Comp. I-y, 3β(3-Guanidinopropoxy)-17β-(3-furyl)-5β-androstane-14β,17α-diol]: the IC50 is 0.501 µM in assay [1] and 6.31 µM in assay [3].
The like results for `C[C@]12CC[C@H](OCC(N)CN)C[C@H]1CC[C@@H]1[C@@H]2CC[C@]2(C)[C@@](O)(c3ccoc3)CC[C@]12O` (stereo partly drawn) [Comp. I-z, 3β-(2,3-Diaminopropoxy)-17β-(3-furyl)-5β-androstane-14β,17α-diol] were, in that order, 0.631 µM and 5.01 µM.
For `C[C@]12CC[C@H](O)C[C@H]1CC[C@@H]1[C@@H]2CC[C@]2(C)[C@@](O)(C3=CC(=O)OC3)CC[C@]12O` [Ref. Comp., 3β,14β,17α-trihydroxy-5β-card-20(22)-enolide, reference compound], the “HR (heart rate)” value in assay [2] is 334 +/- 11.7 beats/min.

Broadly, the IC50 is the concentration that inhibits the measured activity by half.
